This assay addresses Induced myeloid leukemia cell differentiation protein Mcl-1 (Homo sapiens) (UniProt Q07820). Put plainly: Mcl-1 Noxa peptide disruption concentration-response – biochemical, TR-FRET, dose response (AID 1417). The following applies: Mcl-1/Noxa peptide interaction, cell-free TR-FRET (terbium/rhodamine), 2 h; measured here: absolute IC50.

Structures are written as SMILES. Some results are limits rather than exact numbers.

Induced myeloid leukemia cell differentiation protein Mcl-1 (Homo sapiens), sequence (Q07820 whole entry, looked up): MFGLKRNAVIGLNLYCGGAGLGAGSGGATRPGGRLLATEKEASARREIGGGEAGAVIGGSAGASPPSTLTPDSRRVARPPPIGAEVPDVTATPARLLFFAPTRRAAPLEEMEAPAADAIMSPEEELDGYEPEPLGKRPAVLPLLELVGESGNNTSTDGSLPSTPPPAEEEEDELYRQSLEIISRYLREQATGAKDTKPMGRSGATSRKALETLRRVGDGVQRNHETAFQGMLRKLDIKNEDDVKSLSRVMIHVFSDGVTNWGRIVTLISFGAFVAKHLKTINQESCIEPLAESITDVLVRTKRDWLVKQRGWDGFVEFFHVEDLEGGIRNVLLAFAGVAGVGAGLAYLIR

The molecule `COc1ccc2[nH]c3c(C)c4ccncc4c(C)c3c2c1` showed a concentration for half-maximal inhibition (IC50) below 0.4 µM.

`CC(=O)N1CCc2cc(S(=O)(=O)NC(Cc3ccccc3)C(=O)NC3CCCCCC3)ccc21` (stereo not drawn) came in with an IC50 above 54 µM.

Take `COc1ccc(NC(=O)CN2C(=O)/C(=C3\SC(=S)N(C4CCS(=O)(=O)C4)C3=O)c3ccccc32)cc1` (stereo not drawn): the 50% inhibitory concentration (IC50) was determined as 2.54 µM.

In the case of `Nc1ncnc2oc(-c3ccco3)c(-c3ccco3)c12`, the half-inhibitory concentration (IC50) stood at 3.7 µM.

Turning to `COc1cc2c(-c3ccc(O)cc3)nc3c(c(C)nn3-c3ccccc3)c2cc1OC`, the IC50 amounted to 1.19 µM.

As for `O=S(=O)(c1ccc2nc(-c3ccco3)c(-c3ccco3)nc2c1)N1CCOCC1`, the IC50 was determined as 8.41 µM.

In turn, `COc1ccc(N/C=C2\C(=O)CCc3c2oc2cc(Cl)c(O)c(Cl)c32)cc1` came in with an IC50 of 5.07 µM.

The molecule `CN1C(=O)/C(=C2\SC(=S)N(CCCCCC(=O)O)C2=O)c2ccccc21` came in with an IC50 of 2.85 µM.

Molecule `CCn1nc([N+](=O)[O-])c(C(C#N)c2nc3cc(C(F)(F)F)ccc3s2)c(Cl)c1=O` (stereo not drawn) returned an IC50 of 3.15 µM.

Consider `COCCNC(=O)Nc1ccc2nc(-c3ccco3)c(-c3ccco3)nc2c1`, for which the 50% inhibitory concentration (IC50) was below 0.4 µM.

The molecule `O=C(Nc1ccc([N+](=O)[O-])cc1)Nc1ccc(N2CCOCC2)c2nonc12` came in with a half-maximal inhibitory concentration (IC50) of 4.63 µM.

For the molecule `COc1ccc(CN2C(=O)/C(=C/c3ccc(-c4ccc(Cl)c(C(=O)O)c4)o3)SC2=S)cc1`, the half-inhibitory concentration (IC50) stood at 1.56 µM.

As to `CN(C)c1ccc(CC(=O)c2nc3ccccc3s2)cc1`, the IC50 stood at 3.19 µM.

`CCOC(=O)c1c(CSc2ccc(C)cc2)n(C)c2cc(Br)c(O)c(CN(C)C)c12` displayed a 50% inhibitory concentration (IC50) of 3.33 µM.

`O=[N+]([O-])c1ccccc1/C=C/C=N/n1c(-c2ccccc2)n[nH]c1=S` yielded an IC50 above 54 µM.

Regarding `Cc1nc2c(c(=O)n1CCC1=CCCCC1)c1nc3ccccc3nc1n2/N=C/c1ccco1`, the half-inhibitory concentration (IC50) is 4.44 µM.

On to `O=C(CSc1ccsc1[N+](=O)[O-])N1CCN(c2ccc(Cl)cc2)CC1`, for which the half-inhibitory concentration (IC50) is 5.22 µM.

In turn, `CCCOc1ccc(C(=O)Nc2ccc(N(C)C)cc2)cc1` gave an IC50 above 54 µM.

For the molecule `COc1cnn(-c2ccccc2)c(=O)c1SCc1ccc(Cl)cc1Cl`, the IC50 is above 54 µM.

The molecule `CCc1nnc(NC(=O)c2cc(-c3ccco3)nc3ccccc23)s1` had an IC50 of 2.54 µM.

Turning to `C=C(C)C(=O)Nc1cccc(C2=NOC3(C2)C[C@@H](C(N)=O)N(C(=O)c2ccc(Cl)cc2)C3)c1` (stereo partly drawn), the concentration for half-maximal inhibition (IC50) was below 0.4 µM.

Regarding `CCOC(=O)c1sc(NC(=O)Nc2ccc(Cl)cc2)cc1C`, the IC50 is 4.11 µM.

`Oc1[nH]c(=S)sc1/C=C1\C(c2ccccc2)=Nc2ccccc21` registered an IC50 of 8.66 µM.

Molecule `COCCN(CCOC)S(=O)(=O)c1ccc(C(=O)Nc2c(C)n(C)n(-c3ccccc3)c2=O)cc1` registered a concentration for half-maximal inhibition (IC50) above 54 µM.

As to `COc1ccc(C(=O)CSc2nnc(-c3ccco3)c(-c3ccco3)n2)cc1`, the half-maximal inhibitory concentration (IC50) was 7.95 µM.

With `COc1ccc(/C=C2/C(=O)NC(=S)N(C3CC3)C2=O)cc1CN1C(=O)c2ccccc2C1=O`, the IC50 was 3.11 µM.

`CC(OC(=O)c1cccc(N2C(=O)c3ccccc3C2=O)c1)C(=O)Nc1ccc(N(C)C)cc1` (stereo not drawn) displayed a concentration for half-maximal inhibition (IC50) above 54 µM.

The molecule `COc1cccc(C(Nc2ccccn2)c2oc(CO)cc(=O)c2O)c1` (stereo not drawn) yielded a half-maximal inhibitory concentration (IC50) below 0.4 µM.

Molecule `CCN1C(=O)/C(=C/c2ccc3c(c2)CCN3CCCCl)C(=O)NC1=S` displayed a 50% inhibitory concentration (IC50) of 2.57 µM.

For the molecule `O=[N+]([O-])c1cc([N+](=O)[O-])c2cccnc2c1Oc1ccccc1O`, the IC50 worked out at 1.27 µM.

Turning to `CN(C)S(=O)(=O)c1cccc(NC(=S)N/N=C/c2ccc(O)c(O)c2O)c1`, the half-inhibitory concentration (IC50) was below 0.4 µM.

Molecule `Oc1ccccc1NCC(O)Cn1ccc2ccccc21` (stereo not drawn) came in with an IC50 of 5.23 µM.

Take `O=C(CN1C(=O)/C(=C2\SC(=S)N(C3CCS(=O)(=O)C3)C2=O)c2ccccc21)Nc1ccccc1` (stereo not drawn): the IC50 is below 0.4 µM.

Molecule `COc1ccc(C(=O)n2nc(C)c(Br)c2C)cc1` showed an IC50 above 54 µM.

As for `Cc1cccc(N=C2NC(=O)/C(=C/C=C/c3ccco3)S2)c1`, the IC50 was determined as 13.5 µM.

The molecule `O=[N+]([O-])c1c(NCCO)cc(Sc2nc3ccccc3s2)c2nonc12` had a half-maximal inhibitory concentration (IC50) above 54 µM.

`CCn1nc(C)c(/C=N/NC(=O)Cc2ccc(Cl)cc2)c1C` had a half-maximal inhibitory concentration (IC50) above 54 µM.

For the molecule `c1ccc(Nc2cccc(Nc3ccccc3)c2)cc1`, the IC50 is above 54 µM.

The molecule `CCN(c1ccc(NC(=O)COC(=O)/C=C/c2cccs2)cc1)C(C)C` registered an IC50 of 3.81 µM.

Regarding `CSc1nc(N(C)CCO)c2sc3nc(-c4ccco4)c4c(c3c2n1)CCC4`, the concentration for half-maximal inhibition (IC50) is below 0.4 µM.

Molecule `COc1ccccc1NC(=O)c1cc2cc(Br)ccc2cc1O` returned an IC50 of 2.11 µM.

As to `Cc1ccc(N2C(=O)NC(=O)/C(=C/c3ccoc3)C2=O)cc1`, the half-inhibitory concentration (IC50) came to 4.36 µM.

In the case of `CN(C)c1ccc(Nc2c3c4c(cccc4n(C)c2=O)C(=O)c2ccccc2-3)cc1`, the concentration for half-maximal inhibition (IC50) is below 0.4 µM.

`O=C(NCc1ccccn1)c1ccc2nc(-c3ccco3)c(-c3ccco3)nc2c1`: the IC50 turned out to be 1.38 µM.

The molecule `CN(C)c1ccc(NC(=O)Cn2ncn3c(cc4ccccc43)c2=O)cc1` returned an IC50 of 3.42 µM.

Molecule `O/N=C1/CCCSc2ccccc21` yielded an IC50 above 54 µM.

In turn, `CC(C)Cn1c(N)c(C(=O)COC(=O)c2cc(-c3ccco3)nc3ccccc23)c(=O)n(C)c1=O` gave a half-inhibitory concentration (IC50) of 1.45 µM.

With `O=C(CNc1ccc2ccccc2c1)N/N=C/C=C/c1cccc([N+](=O)[O-])c1`, the IC50 was found to be 7.27 µM.

`O=C1CCCC2=C1C(c1ccc(O)c(O)c1)Nc1ccc3ncccc3c12` (stereo not drawn) registered an IC50 below 0.4 µM.

For `C/C(=N/NC(=O)c1cc2ccccc2cc1O)C1C(=O)c2ccccc2C1=O`, the IC50 was 0.919 µM.

For the molecule `Cc1cc(/C=C2/C(=O)NN(c3ccccc3)C2=O)c(C)n1-c1cccc(O)c1`, the IC50 came to 3.25 µM.

With `Cc1cccc(C(=O)NC(=S)NNC(=O)c2ccc(Cl)cc2)c1`, the IC50 is above 54 µM.

Regarding `O=C(Nc1cccc(Cl)c1)c1cc(N=Nc2ccc([N+](=O)[O-])cc2Cl)ccc1O`, the IC50 came to 1.56 µM.

In turn, `CCN(CCO)c1nc(SC)nc2c1sc1nc(-c3ccco3)c3c(c12)CCC3` returned an IC50 below 0.4 µM.

Consider `O=C(O)c1ccc(NC2=C/C(=N/S(=O)(=O)c3ccccc3)c3ccccc3C2=O)cc1`, for which the half-inhibitory concentration (IC50) is below 0.4 µM.

Consider `CC1CCN(c2ccc(NC(=O)Cc3ccccc3)cc2)CC1`, for which the IC50 was above 54 µM.

Take `O=[N+]([O-])c1cc(Cl)cc(/C=N/NC(=S)Nc2ccc(S(=O)(=O)N3CCOCC3)cc2)c1O`: the IC50 is below 0.4 µM.

Molecule `Oc1c(/C=N/c2ccccn2)sc2ccccc12` showed an IC50 below 0.4 µM.

`Cc1ccc(OCC(=O)Nc2ccc(N3CCCC3)cc2)cc1C` came in with an IC50 of 7.07 µM.

On to `CCOC(=O)NNc1ccc2nonc2c1[N+](=O)[O-]`, for which the IC50 was below 0.4 µM.

Molecule `Cc1ccc(NC(=O)CSc2nnc(-c3ccco3)c(-c3ccco3)n2)cc1` showed a concentration for half-maximal inhibition (IC50) of 3.29 µM.

Consider `CC(C)c1ccc(Nc2nnc(SCC(=O)c3nnc(-c4ccccc4)o3)s2)cc1`, for which the IC50 turned out to be 1.92 µM.

Take `Cc1ccc(NC(=O)CN2C(=O)N/C(=C/c3cccn3-c3ccc(C(=O)O)cc3)C2=O)cc1`: the half-maximal inhibitory concentration (IC50) is above 54 µM.

For `N#CC(C#N)=NNc1ccc(S(N)(=O)=O)cc1`, the IC50 was found to be 1.91 µM.

As to `CN1c2ccccc2N(C)C1(C)c1ccccc1`, the concentration for half-maximal inhibition (IC50) was 1.12 µM.

Molecule `O=C(O)c1ccccc1N/N=C/c1cc(Br)cc(Br)c1O` registered an IC50 of 7.51 µM.

`COC(=O)c1c(NC(=O)Cc2cccs2)sc2c1CCCC2`: the half-inhibitory concentration (IC50) was found to be 8.95 µM.

As to `CCOC(=O)C1=C(O)/C(=C/c2cc(OC)c(O)c(OC)c2)SC1=Nc1ccc(OC)cc1`, the IC50 was above 54 µM.

`Cc1c2c(=O)n(-c3nc4ccccc4s3)nc-2cc(O)n1Cc1ccccc1` returned a concentration for half-maximal inhibition (IC50) of 5.62 µM.

`NC(=O)c1c(Nc2nc3c(F)cccc3s2)sc2c1CCCC2` yielded a 50% inhibitory concentration (IC50) below 0.4 µM.

In the case of `COc1cccc2c(=S)c(CCC(C)=O)c(C)[nH]c12`, the IC50 was 0.718 µM.

Regarding `O=C(Nc1ccccc1Cl)c1cnccn1`, the 50% inhibitory concentration (IC50) was above 54 µM.

In the case of `O=C(O)c1cc(N/N=C/c2ccc(N3CCOCC3)s2)ccc1Cl`, the IC50 turned out to be 1.08 µM.

`O=C(OCC(=O)N1CCN(C(=O)c2ccco2)CC1)c1cc(-c2ccco2)nc2ccccc12` came in with an IC50 of 1.93 µM.

For the molecule `O=C(O)c1cc(-c2ccc(/C=C3\NC(=O)N(c4ccccc4)C3=O)o2)ccc1Cl`, the IC50 is above 54 µM.

The molecule `Cc1cccn2c(=O)c3cc(C(=O)NCc4ccco4)c(=N)n(CCc4ccccc4)c3nc12` had a half-inhibitory concentration (IC50) of 3.15 µM.

`CN(C)c1ccc(Sc2nnc(NC(=O)Nc3ccc(Cl)cc3Cl)s2)cc1` yielded an IC50 of 3.46 µM.

With `CCOC(=O)c1sc2nc3c(SCC(=O)O)cc(C(=O)c4cc(F)ccc4O)cn3c(=O)c2c1C`, the half-maximal inhibitory concentration (IC50) is 2.26 µM.

`Cc1cc(NS(=O)(=O)c2ccc(Nc3nc(-c4sc(NC(=O)c5ccccc5)nc4C)cs3)cc2)no1` gave an IC50 of 1.77 µM.

In turn, `CCN(c1ccc(NC(=O)c2ccc(Cl)nc2)cc1)C(C)C` gave an IC50 above 54 µM.

Turning to `COc1ccc(-c2csc(Nc3ccccc3)n2)cc1`, the IC50 is above 54 µM.

The molecule `Cc1ccc(O)c(NC2=C(Cl)C(=O)N(Cc3ccccc3)C2=O)c1` gave a concentration for half-maximal inhibition (IC50) above 54 µM.

With `COc1cc(OC)c2c(O)c3c(c(-c4c5c(c(O)c6c(OC)cc(OC)cc46)CO[C@@H](C)[C@H]5O)c2c1)[C@H](O)[C@H](C)OC3`, the IC50 was above 54 µM.

Molecule `Cc1nc2ccc(NC(=O)c3cc([N+](=O)[O-])cc([N+](=O)[O-])c3Cl)cc2s1` returned an IC50 of 1.3 µM.

In the case of `Cc1ccc2c(c1Cl)NC(C(=O)O)C1CC(Sc3ccccc3[N+](=O)[O-])C(Cl)C21` (stereo not drawn), the IC50 amounted to 2.52 µM.

Take `Oc1c(Br)cc(C=Nc2ccc3nc(-c4ccccc4)[nH]c3c2)c(O)c1Br`: the half-inhibitory concentration (IC50) was 0.594 µM.

`NC(=S)n1[nH]c(-c2ccc([N+](=O)[O-])cc2)c(N=Nc2cccc([N+](=O)[O-])c2)c1=O`: the half-maximal inhibitory concentration (IC50) is 1.65 µM.

`COc1ccc(C2=NN(c3nc(-c4ccccc4)c(CC(=O)O)s3)C(c3ccco3)C2)cc1` (stereo not drawn) returned an IC50 of 11.9 µM.

As to `O=C(NCCCO)c1ccc2nc(-c3ccco3)c(-c3ccco3)nc2c1`, the IC50 is above 54 µM.

For `Cc1nn(CC(=O)Nc2ccc(N(C)C)cc2)c(C)c1[N+](=O)[O-]`, the half-maximal inhibitory concentration (IC50) is above 54 µM.

For the molecule `Cc1sc(NC(=O)c2cc(-c3ccc(Cl)cc3)nc3ccccc23)c(C(N)=O)c1C`, the 50% inhibitory concentration (IC50) is 18.2 µM.

With `Cc1ccc(N=C2NC(=O)/C(=C/C=C/c3ccco3)S2)cc1C`, the IC50 was 4.62 µM.

In the case of `O=C(O)CCCCCN1C(=O)/C(=C\c2cn(-c3ccccc3)nc2-c2cccs2)SC1=S`, the IC50 was 2.5 µM.

(Values after PubChem BioAssay AID1417 (Emory University Molecular Libraries Screening Center, 2008).)
